Experimental data as given in patent US20020173538A1, “Method for sensitizing cancer cells to cancer therapies with a mevalonate-reducing compound” (priority 2000, published 2002).
Like-named read-outs stand apart in the source and are kept apart here. Marks after values point to notes of the source that are not given here.

Experiments:
[1] = tested on: Hep 3B cells; test: MTT cell viability assay, Hep 3B cells (serum-free DMEM); conditions: for viability at 1.25 µM / viability at 5 µM / viability at 10 µM / viability at 25 µM / IC50 / viability at 50 µM / viability at 0.1 µM / viability at 0.5 µM / viability at 1 µM / viability at 2 µM: Homo sapiens, Hep3B
From the text: (§1) Human hepatoma cell lines Hep G2 and Hep 3 were chosen as the in vitro models of hepatocytes and hepatoma, respectively.

[2] = MTT cell viability assay, Hep G2 cells (serum-free DMEM); conditions: human, Hep G2 cells, Cell viability
From the text: as §1

[3] = tested on: Hep G2 cells; test: as above; conditions: Homo sapiens
From the text: as §1

[4] = tested on: Hep 3B cells; conditions: human, 48 h
From the text: as §1

[5] = in vitro; conditions: human, Cell viability
From the text: as §1

[6] = tested on: Hep 3B cells; test: Cell cycle determination by flow cytometry, Hep 3B; format: cell-based, human; conditions: cell line not given
[7] = 48 h, read-out: IC50 (cell viability), 48 hr
[8] = 72 h, read-out: IC50 (cell viability), 72 hr
[9] = no lovastatin 48 hr, then CAO 1.25 μM 48 hr
[10] = no lovastatin 48 hr, then CAO 5 μM 48 hr
[11] = HepG2, 48 h, read-out: IC50 (cell viability), 48 hr
[12] = HepG2, 72 h, read-out: IC50 (cell viability), 72 hr

Compound: CCCCCCCCOC(=O)/C=C/c1ccc(O)c(O)c1 [CAO, caffeic acid 1-octyl ester]
- Ratio, inhibition (%) Hep 3B/inhibition (%) Hep G2 ([1]; CAO 1.25 μM alone, 96 hr): 1.3*
- Ratio, inhibition (%) Hep 3B/inhibition (%) Hep G2 ([1]; CAO 5 μM alone, 96 hr): 0.9
- Ratio, inhibition (%) Hep 3B/inhibition (%) Hep G2 ([1]; CAO 5 μM, 48 hr): 0.9**
- Ratio, inhibition (%) Hep 3B/inhibition (%) Hep G2 ([1]; CAO 5 μM, 72 hr): 1.0
- Ratio, inhibition (%) Hep 3B/inhibition (%) Hep G2 ([1]; CAO 10 μM, 48 hr): 0.8
- Ratio, inhibition (%) Hep 3B/inhibition (%) Hep G2 ([1]; CAO 10 μM, 72 hr): 1.0
- Ratio, inhibition (%) Hep 3B/inhibition (%) Hep G2 ([1]; CAO 25 μM, 48 hr): 1.0*
- Ratio, inhibition (%) Hep 3B/inhibition (%) Hep G2 ([1]; CAO 25 μM, 72 hr): 1.0
- viability at 1.25 µM ([1]; 48 h, read-out: Cell viability, CAO 1.25 μM, 48 hr): 97.8 ± 4.1%
- viability at 5 µM ([1]; 48 h, read-out: Cell viability, CAO 5 μM, 48 hr): 52 ± 1.8%
- viability at 10 µM ([1]; 48 h, read-out: Cell viability, CAO 10 μM, 48 hr): 21.7 ± 3.9%
- viability at 25 µM ([1]; 48 h, read-out: Cell viability, CAO 25 μM, 48 hr): 3.9 ± 1.3%
- IC50 [1, 7]: 5.3 µM
- viability at 1.25 µM ([1]; 72 h, read-out: Cell viability, CAO 1.25 μM, 72 hr): 89.8 ± 0.6%
- viability at 5 µM ([1]; 72 h, read-out: Cell viability, CAO 5 μM, 72 hr): 16.3 ± 2.6%
- viability at 10 µM ([1]; 72 h, read-out: Cell viability, CAO 10 μM, 72 hr): 2.4 ± 1.6%
- viability at 25 µM ([1]; 72 h, read-out: Cell viability, CAO 25 μM, 72 hr): 0%
- IC50 [1, 8]: 2.9 µM
- viability at 1.25 µM ([1]; 96 h, read-out: Cell viability, CAO 1.25 μM alone, 96 hr): 66.9 ± 2.9%
- viability at 5 µM ([1]; 96 h, read-out: Cell viability, CAO 5 μM alone, 96 hr): 20.1 ± 5.7%
- Cell viability [1, 9]: 83.0 ± 4.4^b % of control
- Ratio, inhibition (%) Hep 3B/inhibition (%) Hep G2 [1, 9]: 17.0***
- Cell viability [1, 10]: 53.2 ± 4.5^d % of control
- Ratio, inhibition (%) Hep 3B/inhibition (%) Hep G2 [1, 10]: 0.8*
- viability at 96 h, 1.25 μM ([2]; CAO 1.25 μM alone, 96 hr): 74 ± 2.9%
- viability at 48 h, 1.25 μM ([2]; CAO 1.25 μM, 48 hr): 104 ± 4.6%
- viability at 72 h, 1.25 μM ([2]; CAO 1.25 μM, 72 hr): 102.7 ± 0.4%
- viability at 96 h, 5 μM ([2]; CAO 5 μM alone, 96 hr): 16.2 ± 1.2%
- viability at 48 h, 5 μM ([2]; CAO 5 μM, 48 hr): 44.2 ± 6.6%
- viability at 72 h, 5 μM ([2]; CAO 5 μM, 72 hr): 18.1 ± 2.1%
- viability at 48 h, 10 μM ([2]; CAO 10 μM, 48 hr): 5.8 ± 3.9%
- viability at 72 h, 10 μM ([2]; CAO 10 μM, 72 hr): 0%
- viability at 48 h, 25 μM ([2]; CAO 25 μM, 48 hr): 0%
- viability at 72 h, 25 μM ([2]; CAO 25 μM, 72 hr): 0%
- viability at 48 h, 1.25 μM [2, 9]: 99 ± 4.1%
- viability at 48 h, 5 μM [2, 10]: 42.8 ± 3%
- IC50 [3, 11]: 4 µM
- IC50 [3, 12]: 2.7 µM

Compound: O=C(/C=C/c1ccc(O)c(O)c1)OCCc1ccccc1 [CAPE, caffeic acid phenethyl ester]
- Cell viability ([4]; 5 μM): 88.8 ± 1.6^b % of control
- Cell viability ([4]; 10 μM): 77.4 ± 1.8^c % of control
- Ratio, inhibition (%) Hep 3B/inhibition (%) Hep G2 ([1]; CAPE 5 μM alone, 72 hr, Table 23): 0.4**
- Ratio, inhibition (%) Hep 3B/inhibition (%) Hep G2 ([1]; CAPE 5 μM, 48 hr): 0.4***
- Ratio, inhibition (%) Hep 3B/inhibition (%) Hep G2 ([1]; CAPE 5 μM, 72 hr): 0.5***
- Ratio, inhibition (%) Hep 3B/inhibition (%) Hep G2 ([1]; CAPE 10 μM alone, 72 hr, Table 23): 0.6***
- Ratio, inhibition (%) Hep 3B/inhibition (%) Hep G2 ([1]; CAPE 10 μM, 48 hr): 0.5***
- Ratio, inhibition (%) Hep 3B/inhibition (%) Hep G2 ([1]; CAPE 10 μM, 72 hr): 0.7**
- Ratio, inhibition (%) Hep 3B/inhibition (%) Hep G2 ([1]; CAPE 25 μM alone, 72 hr, Table 23): 0.9
- Ratio, inhibition (%) Hep 3B/inhibition (%) Hep G2 ([1]; CAPE 25 μM, 48 hr): 1.1
- Ratio, inhibition (%) Hep 3B/inhibition (%) Hep G2 ([1]; CAPE 25 μM, 72 hr): 1.0
- Ratio, inhibition (%) Hep 3B/inhibition (%) Hep G2 ([1]; CAPE 50 μM, 48 hr): 0.9**
- Ratio, inhibition (%) Hep 3B/inhibition (%) Hep G2 ([1]; CAPE 50 μM, 72 hr): 1.0
- viability at 5 µM ([1]; 48 h, read-out: Cell viability, CAPE 5 μM, 48 hr): 87.1 ± 1.8%
- viability at 10 µM ([1]; 48 h, read-out: Cell viability, CAPE 10 μM, 48 hr): 73.2 ± 1.2%
- viability at 25 µM ([1]; 48 h, read-out: Cell viability, CAPE 25 μM, 48 hr): 38.2 ± 4.7%
- viability at 50 µM ([1]; 48 h, read-out: Cell viability, CAPE 50 μM, 48 hr): 20.5 ± 4.6%
- IC50 [1, 7]: 19.9 µM
- viability at 5 µM ([1]; 72 h, read-out: Cell viability, CAPE 5 μM alone, 72 hr, Table 23): 74.2 ± 6.8%
- viability at 5 µM ([1]; 72 h, read-out: Cell viability, CAPE 5 μM, 72 hr): 70.8 ± 2.6%
- viability at 10 µM ([1]; 72 h, read-out: Cell viability, CAPE 10 μM alone, 72 hr, Table 23): 53.5 ± 5%
- viability at 10 µM ([1]; 72 h, read-out: Cell viability, CAPE 10 μM, 72 hr): 47.6 ± 1.9%
- viability at 25 µM ([1]; 72 h, read-out: Cell viability, CAPE 25 μM alone, 72 hr, Table 23): 22.3 ± 5.7%
- viability at 25 µM ([1]; 72 h, read-out: Cell viability, CAPE 25 μM, 72 hr): 12.5 ± 4.8%
- viability at 50 µM ([1]; 72 h, read-out: Cell viability, CAPE 50 μM, 72 hr): 0%
- IC50 [1, 8]: 9.5 µM
- Ratio, inhibition (%) Hep 3B/inhibition (%) Hep G2 ([1]; no lovastatin 48 hr, then CAPE 5 μM 48 hr): 0.4***
- Ratio, inhibition (%) Hep 3B/inhibition (%) Hep G2 ([1]; no lovastatin 48 hr, then CAPE 10 μM 48 hr): 0.4***
- viability at 48 h, 5 μM [5]: 70.2 ± 1.7%
- viability at 48 h, 10 μM [5]: 47.7 ± 5.6%
- viability at 48 hr, 5 μM [5]: 71.1 ± 1.8%
- viability at 48 hr, 10 μM [5]: 47.4 ± 3%
- viability at 48 hr, 25 μM [5]: 42.6 ± 1.3%
- viability at 48 hr, 50 μM [5]: 7.5 ± 0.6%
- viability at 72 h, 5 μM [5]: 36.8 ± 6.7%
- viability at 72 h, 10 μM [5]: 20 ± 4%
- viability at 72 h, 25 μM [5]: 13.2 ± 1.1%
- viability at 72 hr, 5 μM [5]: 42.3 ± 2.5%
- viability at 72 hr, 10 μM [5]: 21.2 ± 5%
- viability at 72 hr, 25 μM [5]: 12.5 ± 3%
- viability at 72 hr, 50 μM [5]: 1.9 ± 1.8%
- cell cycle arrest stage [6]: G1 arrest
- IC50 [3, 11]: 9.5 µM
- IC50 [3, 12]: 4.5 µM

Compound: COc1cccc2c1C(=O)c1c(O)c3c(c(O)c1C2=O)C[C@@](O)(C(=O)CO)C[C@@H]3O[C@H]1C[C@H](N)[C@H](O)[C@H](C)O1 [DOX, doxorubicin]
- Ratio, inhibition (%) Hep 3B/inhibition (%) Hep G2 ([1]; DOX 0.5 μM, 48 hr): 0.6***
- Ratio, inhibition (%) Hep 3B/inhibition (%) Hep G2 ([1]; DOX 0.5 μM, 72 hr): 0.7*
- Ratio, inhibition (%) Hep 3B/inhibition (%) Hep G2 ([1]; DOX 1 μM, 48 hr): 0.6***
- Ratio, inhibition (%) Hep 3B/inhibition (%) Hep G2 ([1]; DOX 1 μM, 72 hr): 0.6**
- Ratio, inhibition (%) Hep 3B/inhibition (%) Hep G2 ([1]; DOX 2 μM, 48 hr): 0.7***
- Ratio, inhibition (%) Hep 3B/inhibition (%) Hep G2 ([1]; DOX 2 μM, 72 hr): 0.9**
- viability at 0.1 µM ([1]; 48 h, read-out: Cell viability, DOX 0.1 μM, 48 hr): 99.9 ± 7.8%
- viability at 0.5 µM ([1]; 48 h, read-out: Cell viability, DOX 0.5 μM, 48 hr): 66.7 ± 1.6%
- viability at 1 µM ([1]; 48 h, read-out: Cell viability, DOX 1 μM, 48 hr): 59.3 ± 4.1%
- viability at 2 µM ([1]; 48 h, read-out: Cell viability, DOX 2 μM, 48 hr): 40.1 ± 3%
- IC50 [1, 7]: 1.5 µM
- viability at 0.1 µM ([1]; 72 h, read-out: Cell viability, DOX 0.1 μM, 72 hr): 100 ± 5.8%
- viability at 0.5 µM ([1]; 72 h, read-out: Cell viability, DOX 0.5 μM, 72 hr): 62.1 ± 6.9%
- viability at 1 µM ([1]; 72 h, read-out: Cell viability, DOX 1 μM, 72 hr): 48.9 ± 8.4%
- viability at 2 µM ([1]; 72 h, read-out: Cell viability, DOX 2 μM, 72 hr): 9.9 ± 2.7%
- IC50 [1, 8]: 1 µM
- viability at 48 hr, 0.1 μM ([2]; DOX 0.1 μM, 48 hr): 100 ± 5.3%
- viability at 72 hr, 0.1 μM ([2]; DOX 0.1 μM, 72 hr): 99.9 ± 7.5%
- viability at 48 hr, 0.5 μM ([2]; DOX 0.5 μM, 48 hr): 42.8 ± 3.7%
- viability at 72 hr, 0.5 μM ([2]; DOX 0.5 μM, 72 hr): 46.7 ± 4%
- viability at 48 hr, 1 μM ([2]; DOX 1 μM, 48 hr): 29.1 ± 1.7%
- viability at 72 hr, 1 μM ([2]; DOX 1 μM, 72 hr): 20 ± 1.1%
- viability at 48 hr, 2 μM ([2]; DOX 2 μM, 48 hr): 16.7 ± 2.4%
- viability at 72 hr, 2 μM ([2]; DOX 2 μM, 72 hr): 1.9 ± 0.8%
- IC50 [3, 11]: 0.4 µM
- IC50 [3, 12]: 0.5 µM
